Measurements from the Kinase Knowledgebase extract (Sharma et al. 2016).

Key:
EGFR (human) [1] = target: EGFR (human) (UniProt P00533); settings: h7 578t
EGFR (human) [2] = target: EGFR (human) (UniProt P00533); settings: km-12
EGFR (human) [3] = target: EGFR (human) (UniProt P00533); settings: uacc62
EGFR (human) [4] = target: EGFR (human) (UniProt P00533); settings: sn12c
EGFR (human) [5] = target: EGFR (human) (UniProt P00533); settings: rxf-393
EGFR (human) [6] = target: EGFR (human) (UniProt P00533); settings: molt-4
EGFR (human) [7] = target: EGFR (human) (UniProt P00533); settings: ccrf-cem leukemia cell
EGFR (human) [8] = target: EGFR (human) (UniProt P00533); settings: HN5
EGFR (human) [9] = target: EGFR (human) (UniProt P00533); settings: sk-mel-2
EGFR (human) [10] = target: EGFR (human) (UniProt P00533); settings: hop-62
EGFR (human) [11] = target: EGFR (human) (UniProt P00533); settings: h460
EGFR (human) [12] = target: EGFR (human) (UniProt P00533); settings: hct-15
EGFR (human) [13] = target: EGFR (human) (UniProt P00533); settings: m14
EGFR (human) [14] = target: EGFR (human) (UniProt P00533); settings: a431
EGFR (human) [15] = target: EGFR (human) (UniProt P00533); settings: ovcar-5
EGFR (human) [16] = target: EGFR (human) (UniProt P00533); settings: pc-3
EGFR (human) [17] = target: EGFR (human) (UniProt P00533); settings: sf-539
EGFR (human) [18] = target: EGFR (human) (UniProt P00533); settings: sk-ov-3
EGFR (human) [19] = target: EGFR (human) (UniProt P00533); settings: h522
EGFR (human) [20] = target: EGFR (human) (UniProt P00533); settings: caski
EGFR (human) [21] = target: EGFR (human) (UniProt P00533); settings: mda-mb-231/atcc
EGFR (human) [22] = target: EGFR (human) (UniProt P00533); settings: uo-31
EGFR (human) [23] = target: EGFR (human) (UniProt P00533); settings: hct 116
EGFR (human) [24] = target: EGFR (human) (UniProt P00533); settings: mda-mb-435
EGFR (human) [25] = target: EGFR (human) (UniProt P00533); settings: h226
EGFR (human) [26] = target: EGFR (human) (UniProt P00533); settings: siha
EGFR (human) [27] = target: EGFR (human) (UniProt P00533); settings: k562
EGFR (human) [28] = target: EGFR (human) (UniProt P00533); settings: achn
EGFR (human) [29] = target: EGFR (human) (UniProt P00533); settings: lox-imvi
EGFR (human) [30] = target: EGFR (human) (UniProt P00533); settings: ovcar-8
EGFR (human) [31] = target: EGFR (human) (UniProt P00533); settings: uo-31; remark: listed apart in the source
EGFR (human) [32] = target: EGFR (human) (UniProt P00533); settings: tk-10
EGFR (human) [33] = target: EGFR (human) (UniProt P00533); settings: mda-n
EGFR (human) [34] = target: EGFR (human) (UniProt P00533); settings: ht-29
EGFR (human) [35] = target: EGFR (human) (UniProt P00533); settings: snb-19
EGFR (human) [36] = target: EGFR (human) (UniProt P00533); settings: snb-75
EGFR (human) [37] = target: EGFR (human) (UniProt P00533); settings: sf268
EGFR (human) [38] = target: EGFR (human) (UniProt P00533); settings: mg-mid
EGFR (human) [39] = target: EGFR (human) (UniProt P00533); settings: ekvx
EGFR (human) [40] = target: EGFR (human) (UniProt P00533); settings: h23
EGFR (human) [41] = target: EGFR (human) (UniProt P00533); settings: mcf-7
EGFR (human) [42] = target: EGFR (human) (UniProt P00533); settings: hcc2998
EGFR (human) [43] = target: EGFR (human) (UniProt P00533); settings: ovcar-4
EGFR (human) [44] = target: EGFR (human) (UniProt P00533); settings: t-47d
EGFR (human) [45] = target: EGFR (human) (UniProt P00533); settings: rpmi8226
EGFR (human) [46] = target: EGFR (human) (UniProt P00533); settings: malme-3m
EGFR (human) [47] = target: EGFR (human) (UniProt P00533); settings: h322m
EGFR (human) [48] = target: EGFR (human) (UniProt P00533); settings: bt-549
EGFR (human) [49] = target: EGFR (human) (UniProt P00533); settings: colo-205
EGFR (human) [50] = target: EGFR (human) (UniProt P00533); settings: ovcar-3

Chain of EGFR (human) (P00533 whole entry, looked up): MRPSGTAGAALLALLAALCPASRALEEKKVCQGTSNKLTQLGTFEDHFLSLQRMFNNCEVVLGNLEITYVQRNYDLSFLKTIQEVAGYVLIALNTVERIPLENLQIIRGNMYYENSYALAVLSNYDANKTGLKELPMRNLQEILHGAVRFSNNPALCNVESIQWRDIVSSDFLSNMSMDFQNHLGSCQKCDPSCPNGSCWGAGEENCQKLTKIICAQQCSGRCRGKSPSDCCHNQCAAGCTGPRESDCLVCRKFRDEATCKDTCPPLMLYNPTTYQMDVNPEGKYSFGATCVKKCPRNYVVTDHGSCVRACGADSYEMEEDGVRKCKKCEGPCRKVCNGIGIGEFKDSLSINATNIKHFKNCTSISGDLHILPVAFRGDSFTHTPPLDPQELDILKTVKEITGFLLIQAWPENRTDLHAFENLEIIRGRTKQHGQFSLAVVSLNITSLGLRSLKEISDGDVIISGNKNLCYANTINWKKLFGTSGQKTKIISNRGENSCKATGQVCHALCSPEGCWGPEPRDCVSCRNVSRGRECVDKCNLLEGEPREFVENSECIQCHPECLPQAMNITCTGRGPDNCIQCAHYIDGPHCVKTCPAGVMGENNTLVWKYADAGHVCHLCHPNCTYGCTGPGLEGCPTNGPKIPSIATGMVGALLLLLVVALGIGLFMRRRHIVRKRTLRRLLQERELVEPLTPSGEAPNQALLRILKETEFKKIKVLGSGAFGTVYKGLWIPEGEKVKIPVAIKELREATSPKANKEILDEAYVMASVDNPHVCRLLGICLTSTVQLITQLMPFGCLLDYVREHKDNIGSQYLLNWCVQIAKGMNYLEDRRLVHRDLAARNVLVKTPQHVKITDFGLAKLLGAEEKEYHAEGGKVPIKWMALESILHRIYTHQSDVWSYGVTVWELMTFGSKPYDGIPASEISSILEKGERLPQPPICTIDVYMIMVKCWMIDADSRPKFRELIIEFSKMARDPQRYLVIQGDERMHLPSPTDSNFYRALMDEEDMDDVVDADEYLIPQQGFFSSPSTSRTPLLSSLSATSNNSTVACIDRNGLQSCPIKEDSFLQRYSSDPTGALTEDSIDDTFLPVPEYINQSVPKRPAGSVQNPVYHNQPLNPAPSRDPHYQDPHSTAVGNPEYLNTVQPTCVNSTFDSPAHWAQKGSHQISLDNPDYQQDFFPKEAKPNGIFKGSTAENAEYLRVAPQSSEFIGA

N#CC(C#N)=Cc1csc([N+](=O)[O-])c1
Settings	GI50 [µM]	IC50 [µM]
EGFR (human) [1]	28.2	–
EGFR (human) [2]	35.5	–
EGFR (human) [3]	17.8	–
EGFR (human) [4]	34.7	–
EGFR (human) [5]	17.4	–
EGFR (human) [6]	23.4	–
EGFR (human) [7]	23.4	–
EGFR (human) [8]	–	23
EGFR (human) [9]	26.9	–
EGFR (human) [10]	25.7	–
EGFR (human) [11]	54.9	–
EGFR (human) [12]	33.9	–
EGFR (human) [13]	17.8	–
EGFR (human) [14]	–	28.4
EGFR (human) [15]	59	–
EGFR (human) [16]	38	–
EGFR (human) [17]	41.7	–
EGFR (human) [18]	59	–
EGFR (human) [19]	15.1	–
EGFR (human) [20]	–	40
EGFR (human) [21]	26.3	–
EGFR (human) [22]	17.8	–
EGFR (human) [23]	16.2	–
EGFR (human) [24]	20.9	–
EGFR (human) [25]	> 100	–
EGFR (human) [26]	–	44.6
EGFR (human) [27]	27.5	–
EGFR (human) [28]	19.5	–
EGFR (human) [29]	30.9	–
EGFR (human) [30]	19.5	–
EGFR (human) [31]	15.1	–
EGFR (human) [32]	45.7	–
EGFR (human) [33]	19.9	–
EGFR (human) [34]	21.9	–
EGFR (human) [35]	60.2	–
EGFR (human) [36]	25.1	–
EGFR (human) [37]	38.9	–
EGFR (human) [38]	30.2	–
EGFR (human) [39]	> 100	–
EGFR (human) [40]	30.2	–
EGFR (human) [41]	41.7	–
EGFR (human) [42]	26.9	–
EGFR (human) [43]	28.8	–
EGFR (human) [44]	22.9	–
EGFR (human) [45]	31.6	–
EGFR (human) [46]	33.9	–
EGFR (human) [47]	74.1	–
EGFR (human) [48]	27.5	–
EGFR (human) [49]	27.5	–
EGFR (human) [50]	21.9	–
